Measured values as given in patent publication US12629387B2, “Composition of antiviral agent for use in prophylactic or post-exposure treatment of infectious or respiratory diseases” (InspirMed Corp., priority 2020, dated 2026).

Tests used:
[1] = Pharmacokinetics and tissue distribution study of HCQ in SD rats after single-dose IV/IT Free HCQ or IT TLC19 (Study No. PK20021); conditions: for concentration at 24 h / AUC(0-t) / Cmax: Sprague-Dawley, rat, in vivo; for concentration at 24 h: 0.59 mg/animal; for AUC(0-t) / Cmax: 0.59 mg; for Cmax: Cmax of HCQ; for Cmax / Tmax of HCQ / AUC0-72 of HCQ: Free HCQ, 0.590 mg/animal; for Tmax of HCQ: median; for mean HCQ concentration in lung, starting value of decline: start of the first 24 hours post-dose
[2] = system: SARS-CoV-infected human airway epithelial (HAE) cells; conditions: read-out: in vitro antiviral EC50; cited from earlier work

## CCN(CCO)CCCC(C)Nc1ccnc2cc(Cl)ccc12 (stereo not drawn) [Free HCQ, hydroxychloroquine]
[1]
  concentration at 24 h: 2160 ng/g
[1]; inhaled or intranasal
  AUC(0-t): 2260 ng·h/mL
[1]; inhaled or intranasal, rat blood, IT administration
  Cmax: 477 ng/mL
[1]; inhaled or intranasal, rat heart, IT administration
  Cmax: 3800 ng/g
[1]; inhaled or intranasal, rat lung, IT administration
  Cmax: 47800 ng/g
[1]; iv
  AUC(0-t): 2330 ng·h/mL
  concentration at 24 h: 3770 ng/g
[1]; iv, rat blood, IV injection
  Cmax: 433 ng/mL
[1]; iv, rat heart, IV injection
  Cmax: 4500 ng/g
[1]; iv, rat lung, IV injection
  Cmax: 9400 ng/g
[1]; rat blood, Free HCQ 0.590 mg/animal
  overall systemic exposures (Cmax and AUC), IV group compared with IT group: similar
[1]; rat blood, IT administration
  Tmax of HCQ: 15 min
[1]; rat blood, IV injection
  Tmax of HCQ: 15 min
[1]; rat heart, IT administration
  AUC0-72 of HCQ: 64.2 µg·h/g
  Tmax of HCQ: 15 min
[1]; rat heart, IV injection
  AUC0-72 of HCQ: 67.2 µg·h/g
  Tmax of HCQ: 15 min
[1]; rat lung, Free HCQ IT group
  mean HCQ concentration in lung, starting value of decline: 47.8 µg/g
[1]; rat lung, Free HCQ IV group
  mean HCQ concentration in lung, starting value of decline: 9.4 µg/g
[1]; rat lung, IT administration
  AUC0-72 of HCQ: 329 µg·h/g
  Tmax of HCQ: 15 min
[1]; rat lung, IV injection
  AUC0-72 of HCQ: 252 µg·h/g
  Tmax of HCQ: 15 min

## N#C[C@@]1(c2ccc3c(N)ncnn23)O[C@H](CO)[C@@H](O)[C@H]1O [GS-441524, (2R,3R,4S,5R)-2-(4-aminopyrrolo[2,1-f][1,2,4]triazin-7-yl)-3,4-dihydroxy-5-(hydroxymethyl) oxolane-2-carbonitrile]
[2]
  EC50: 0.18 µM
